Type in all cases: in vitro ADME
Data set [1] in a line: Hepatocyte stability of LaKe, human. The conditions noted are these: cryopreserved hepatocytes.
Data set [2] is described as follows: Stability of LaKe in plasma, human. The conditions noted are these: thawed); human plasma (frozen). The method, then: (§1) The in vitro stability of LaKe was evaluated following incubation in simulated gastric fluid (SGF), simulated intestinal fluid (SIF), fresh and frozen plasma (rats and humans, respectively), and the presence of hepatocytes (rats and humans) and liver microsomes (rats and humans). At the chosen time points, the mixtures were analyzed by LC-MS/MS to quantify the remaining LaKe and all assays included at least one control compound with known pharmacokinetic properties. […]
(§2) centrifuged at 4000 rpm, 4℃ for 20 min. 60 μL of supernatant was mixed with 180 μL of purified water for subsequent LC/MS/MS analysis.
LC-MS/MS Condition: ACQUITY UPLC BEH C18 1.7um 2.1 * 50mm Column (Part No.186002350). Mobile phase: A: 0.1% Formic Acid in Water; B: 0.1% Formic Acid in ACN.
Stability of LaKe in simulated intestinal fluid (SIF)
Preparation of SIF-solution: 0.136 g KH2PO4 and 0.064 g pancreatin was dissolved H2O to a total volume of solution 20 mL. The pH of the test solution was adjusted to 6.80 ± 0.05.
Procedure: 2 μL of a 10mg/ml working solution of LaKe in DMSO was spiked into 96-deep-well plates corresponding to timepoints T0, T60, T120, T360 and T1440. Experiments were performed in duplicate. 198 μL of SIF solution was then transferred to the individual wells (except T0) to reach 0.1mg/ml as the final test concentration for each time point (60, 120, 360, 1440 minutes). […]

The nature of data set [3]: In vitro stability in simulated gastric fluid. The note with it: simulated gastric fluid (SGF), pH = 1. The method, then:
as §1, §2
LC-MS/MS Condition: ACQUITY UPLC BEH C18 1.7um 2.1 * 50mm Column (Part No.186002350). Mobile phase: A: 0.1% Formic Acid in Water; B: 0.1% Formic Acid in ACN. […]
Samples were incubated at 37 ℃, 600 rpm for the appointed time. At the chosen time points (60, 120, 360, 1440 minutes) samples were immediately mixed with 400 μL of cold acetonitrile containing 200 ng/mL tolbutamide and labetalol (internal standards). 200 μL of suspension was removed and mixed completely with 400 μL of cold acetonitrile containing 200 ng/mL tolbutamide and labetalol again. The T0 samples were prepared by transferring 198 μL of SIF solution to corresponding well after adding 400 μL of cold acetonitrile containing 200 ng/mL tolbutamide and then mixing completely. The samples were […]
Stability of LaKe in plasma […]

This is an account of results in paper PMC11403612, “Preparation and Preclinical Characterization of a Simple Ester for Dual Exogenous Supply of Lactate and Beta-hydroxybutyrate” (Journal of Agricultural and Food Chemistry, 2024).

Molecules are shown by their SMILES.

As usually defined, the half-life is the time in which the quantity being followed falls by half. `CC(O)CCOC(=O)C(C)O` (stereo not drawn) [LaKe, 3-hydroxybutyl 2-hydroxypropanoate] came in with a half-life at 0.1 mg/mL in data set [1] of less than 30 min. In data set [2], this molecule showed a half-life at 2 µM of less than 30 min. Also, in data set [3], the half-life is more than 720 min.
